In article PMC4434603 (Journal of biomolecular screening, 2011):

T1: His-RORα-LBD (Homo sapiens, UniProt P35398)
T1 sequence (P35398 with tags, fused parts or gaps): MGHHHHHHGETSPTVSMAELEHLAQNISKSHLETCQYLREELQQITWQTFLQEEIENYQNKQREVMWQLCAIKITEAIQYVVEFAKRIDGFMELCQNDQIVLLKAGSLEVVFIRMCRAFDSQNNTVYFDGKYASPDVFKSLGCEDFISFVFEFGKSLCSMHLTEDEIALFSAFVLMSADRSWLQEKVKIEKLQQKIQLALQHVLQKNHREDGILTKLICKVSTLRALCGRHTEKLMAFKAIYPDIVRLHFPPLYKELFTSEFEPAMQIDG

T2: Biotin-PGC-1α NR1 peptide (biotin on the N-terminus)
T2 peptide: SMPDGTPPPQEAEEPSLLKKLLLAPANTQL


Experiments:
His-RORα-LBD = target: T1, His-RORα-LBD; test: HTS LOPAC AlphaScreen screen and compound response curves; type: biochemical; conditions: CRC; for EC50: read-out: Final EC50, 50 µM top, 3-fold dilutions, 10 points, triplicate
[1] = target: T2, Biotin-PGC-1α NR1 peptide; test: AlphaScreen or HTRF

| Molecule | Hill Slope (His-RORα-LBD) | EC50 (His-RORα-LBD) [nM] | EC50 [1] [nM] |
| --- | --- | --- | --- |
| CC(=O)[C@H]1CC[C@H]2[C@@H]3CCC4=CC(=O)CC[C@]4(C)[C@H]3CC[C@]12C [P 0130] | 1.07 | 833 | – |
| CC(=O)[C@H]1CCC2C3CC[C@H]4C[C@H](O)CC[C@]4(C)C3CC[C@@]21C (stereo partly drawn) [P 8887] | 0.28 | 331 | – |
| CCCCCCC(C)(C)c1ccc([C@@H]2C[C@H](O)CC[C@H]2CCCO)c(O)c1 [C 1112] | 1.73 | 224 | – |
| C[C@]12C=CC(=O)C=C1CC[C@@H]1C2=CC[C@]2(C)[C@@H](C(=O)CN3CCN(c4cc(N5CCCC5)nc(N5CCCC5)n4)CC3)CC[C@@H]12.O=C(O)/C=C\C(=O)O [U 5882] | 1.79 | 393 | – |
| His-RORα-LBD (262–523) (domain or fragment) GETSPTVSMAELEHLAQNISKSHLETCQYLREELQQITWQTFLQEEIENYQNKQREVMWQLCAIKITEAIQYVVEFAKRIDGFMELCQNDQIVLLKAGSLEVVFIRMCRAFDSQNNTVYFDGKYASPDVFKSLGCEDFISFVFEFGKSLCSMHLTEDEIALFSAFVLMSADRSWLQEKVKIEKLQQKIQLALQHVLQKNHREDGILTKLICKVSTLRALCGRHTEKLMAFKAIYPDIVRLHFPPLYKELFTSEFEPAMQIDG | – | – | 36 |
